Results: patent US10479808B1, “Bisphosphonate-based coordination complexes as enhanced pharmaceutical formulations and method of preparing the same” (University of Puerto Rico, priority 2018, dated 2019)
“Also recorded” adds a separate entry of the source.

How the values were obtained:
Format in all cases: physicochemical
[1] = Dissolution profile in FaSSGF (pH 1.60), ALEN-Cu complexation, UV-Vis; settings: for order of structural stability of the complexes: FaSSGF pH 1.60, from dissolution profiles
[2] = Dissolution profile in PBS (pH 7.40), ALEN-Cu complexation, UV-Vis; settings: for order of structural stability of the complexes: PBS pH 7.40, from dissolution profiles
[3] = Thermal stability by thermal gravimetric analysis (TGA) under N2
Method: Thermographs were recorded in a TGA Q500 (TA Instruments Inc.). Thermograph of the BP and pBioCCs were collected using a temperature range of 30-700° C. at 5° C./min under a N2 gas purge. In all cases, ˜10 mg of powder sample was thermally treated. Data was analyzed with TA Universal Analysis software version 4.3A.
It was expected that the thermograph of each pBioCCs consists of at least two mayor decomposition profiles one at lower temperature representing the loss of coordinated or lattice water molecules, and another at higher temperature which accounts for the thermal combustion of the organic moiety, the BP ligand, in this case ALEN. A third decomposition event might be observed above 350° C., due to the thermal degradation of the metal/metal oxide.

Row | time to reach maximum release ([1]; FaSSGF pH 1.60, 37 °C) [s] | time to reach maximum release ([2]; PBS pH 7.40, 37 °C) [min] | thermal stability (in words) [3] | SMILES | order of structural stability of the complexes [1] | order of structural stability of the complexes [2]
1 | 10 | 10 |  | NCCCC(O)(P(=O)(O)O)P(=O)(O)O [ALEN, Alendronate sodium trihydrate, reference compound] |  | 
2 |  |  | high thermal stability | NCCCC(O)(P(=O)([O-])O)P(=O)([O-])O.O.[Ca+2] [ALEN-Ca form I] | less stable; also recorded: ALEN-Ca form I<ALEN-Ca form II<ALEN-Zn form I<ALEN-Mg<ALEN-Zn form II | ALEN-Mg<ALEN-Ca form I<ALEN-Ca form II<ALEN-Zn form I<ALEN-Zn form II
3 |  |  | high thermal stability | NCCCC(O)(P(=O)([O-])O)P(=O)([O-])O.O.[Zn+2] [ALEN-Zn form I] | ALEN-Ca form I<ALEN-Ca form II<ALEN-Zn form I<ALEN-Mg<ALEN-Zn form II | ALEN-Mg<ALEN-Ca form I<ALEN-Ca form II<ALEN-Zn form I<ALEN-Zn form II
